The subject of one experiment is Swiss mice. The experiment can be described thus: Mouse Matrigel plug angiogenesis assay. The class given is in vivo. The settings on record: endothelial-cell infiltration, n = 5 mice. As for the experimental part: Figure 6 Inhibition of in vitro and in vivo angiogenesis by HB-19. (A) HB-19 inhibits proliferation of HUVECs. Twenty-four hours after seeding HUVECs in 2% FBS, cells were stimulated by 0.25 nM VEGF165, in the absence or presence of 1 µM HB-19 or 0.1 µM anti-nucleolin mAb MS-3 as indicated. After 72 h, cell number was determined by crystal violet staining. The data are reported as the mean of triplicate samples. (B) HB-19 inhibits migration of HUVECs. Cell migration was studied using a modified Boyden chamber. Cells were incubated (4 h at 37°C) with VEGF165, HB-19, or anti-nucleolin mAb MS-3 as above. Cells that migrated through the pore to the lower filter surface were counted and are shown as number per microscopic field at ×100 magnification. The data are the mean of three independent high-power fields/well performed in duplicate in two independent experiments. […] Aortic endothelial (ABAE) cells in the absence or presence of 3 nM PTN, 0.5 nM VEGF165, and 3 nM FGF-2 were seeded on a three-dimensional collagen gel in complete medium. […] Tubular network structures were quantified using phase contrast microscopy (×100). […] Quantification of endothelial cell invasion into the Matrigel was determined and is expressed as a mean of five fields per section from 3 Matrigel-plug sections per mouse. The results are expressed as the mean of five mice per group. […]

In experiment [1] the test system is CD31 endothelial marker in tumors. Put plainly: Tumor vascularization, CD31 immunohistochemistry. The class given is in vivo, mouse. The settings on record: CD31 staining; HB-19 5 mg/kg or 5-FU 40 mg/kg, intraperitoneal, 8 weeks; compared to untreated tumors. How it is done:
Figure 9 Reduced density of blood vessels in HB-19 treated tumor-bearing mice. Sections of tumors recovered from mice, untreated control and treated with either HB-19 or 5-FU (experiment described in Figure 8B) were stained with antibodies against the CD31 endothelial marker and analyzed by fluorescence microscopy. […] Angiogenesis was quantified by image analysis of CD31-labeled endothelial cells.
Immediately after surgical resection, tumors, were frozen in liquid nitrogen and fixed for 20 min in acetone at 4°C or fixed with 4% PFA for paraffin inclusion. The sections of 8 µm were re-hydrated and saturated in PBS containing 1% BSA and 2% normal goat serum. To visualize tumor endothelial cells, sections were incubated with a Rat anti-mouse CD31 monoclonal antibody (1∶50) in saturation buffer 1 hour at room temperature. After two washes in PBS, sections were incubated for 1 hour at room temperature with biotinylated goat anti-Rat IgG (1∶1000 dilution; Chemicon International Inc., Temecula, CA) in saturation buffer, followed by three washes in PBS and incubation with the avidin-biotinylated-alkaline phosphatase complex (Vector Laboratories). […] Angiogenesis was quantified by Image analysis of CD31-labeled endothelial cells. The EC density in each field was expressed as the ratio of EC area/total area examined ×100 (%). […]

The test system of the next experiment is MDA-MB-231 cells. Put plainly: BrdU incorporation and cell cycle analysis. Format: cell-based, human. The settings on record: 10 µM HB-19, 48 hours, 10% FBS, compared to untreated cells. As for the experimental part: Figure 5 Cell cycle perturbations induced by HB-19 treatment. (A) Analysis of cell cycle parameters in HB-19 treated cells. MDA-MB-231 cells were cultured for 48 hours in medium without FBS (starvation) or in medium containing 10% FBS supplemented or not with 10 µM HB-19. DNA synthesis was quantified after BrdU incorporation and staining with anti-BrdU antibody and 7-AAD, by FACScan analysis. The histograms indicate the relative amount of cells in G1, S and G2/M cell phases. […] Serum starved MDA-MB-231 cells were stimulated with 10% FBS in the absence or presence of 2, 5, and 10 µM of HB-19. Five minutes after serum stimulation, cells were lysed directly in electrophoresis sample buffer and processed for immunoblotting using anti-phospho-p42/44 ERK1/2 and anti-p42/44 ERK antibodies. NS stands for non-stimulated cells.
Cell cycle analysis was performed using the FITC-BrdU flow kit (#559619) kit from BD Bioscience Pharmingen, according to the manufacturer's instructions. Briefly, MDA-MB-231 cells (1×10^5) were seeded in 12-multiwell and incubated 24 hours for adhesion. Cells were treated with HB-19 for 48 hours and labeled with BrdU (10 µM, 1 hour, 37°C), then they were trypsinized, fixed and treated with DNase (300 µg/ml, 1 hour, 37°C) before staining with anti-BrdU-FITC antibody and 7-AAD reagent. Cells were analyzed on a Becton Dickinson FACScan (fluorescence activated cell sorter), on FL1-H and FL3-H parameters for FITC and 7-AAD fluorescent dye respectively.
In general terms: Incorporation of labelled thymidine or its analogues reports DNA synthesis.

The test system of experiment [2] is cells (surface nucleolin). Put plainly: Internalization of nucleolin ligands (quoted). Format: cell-based. The settings on record: HB-19, 20°C; compared with GROs.

In the case of “pseudo-tripeptide Lysψ(CH2N)-Pro-Arg coupled to a template (H2NLys-Lys-Lys-Gly-Pro-Lys-Glu-Lys-AhxCONH2) [HB-19, pseudopeptide presenting pentavalently the pseudo-tripeptide Lysψ(CH2N)-Pro-Arg coupled to a template]”, the “inhibition of PTN induced angiogenesis” value in the experiment with Swiss mice (1 µM HB-19, 5 nM PTN) is listed as “significantly inhibited the ex vivo angiogenesis”. Besides, the “inhibition of FGF-2 induced angiogenesis” value in the experiment on Swiss mice (1 µM HB-19, 10 nM FGF-2) was “significantly inhibited the ex vivo angiogenesis”. Besides, the “inhibition of tumor vascularization” value in experiment [1] was “significantly inhibited tumor vascularization”. Further, in the experiment with MDA-MB-231 cells, the “decrease of cells in S phase” value was found to be 62%, the “increase of cells in G1 phase” value is on record as 9% and the “increase of cells in G2/M phase” value stood at 31%. Further, the “localization at 20°C” value in experiment [2] was “remains aggregated at the plasma membrane”.
